One block for each compound: values may come before it.
Assays:
[1] = test system: Uromyces appendiculatus; experiment: In vivo preventive test on Uromyces appendiculatus (bean rust); settings: for Efficacy: Table B1, dose 10 ppm
Experimental: Example B: In Vivo Preventive Test on Uromyces appendiculatus (Bean Rust)
Solvent: 5% by volume of Dimethyl sulfoxide • 10% by volume of Acetone
Emulsifier: […] of Tween® 80 per mg of active ingredient
(§1) The active ingredients are made soluble and homogenized in a mixture of Dimethyl sulfoxide/Acetone/Tween® 80 and then diluted in water to the desired concentration.
The young plants of bean are treated by spraying the active ingredient prepared as described above.
Control plants are treated only with an aqueous solution of Acetone/Dimethyl sulfoxide/Tween® 80.
After 24 hours, the plants are contaminated by spraying the leaves with an aqueous suspension of Uromyces appendiculatus spores. The contaminated bean plants are incubated for 24 hours at 20° C. and at 100% relative humidity and then for 10 days at 20° C. and at 70-80% relative humidity.
(§2) The test is evaluated 11 days after the inoculation. 0% means an efficacy which corresponds to that of the control plants while an efficacy of 100% means that no disease is observed.

[2] = test system: Phakopsora pachyrhizi; experiment: In vivo preventive test on Phakopsora pachyrhizi (soybean rust); settings: for protection: dose of ppm of active ingredient (number not given), comparison with WO-2010/130767, text
Experimental: Example C: In Vivo Preventive Test on Phakopsora pachyrhizi (Soybean Rust)
Solvent: 24.5 parts by weight of acetone • 24.5 parts by weight of N,N-dimethylacetamide
Emulsifier: 1 part by weight of alkylaryl polyglycol ether
To produce a suitable preparation of active compound, 1 part by weight of active compound is mixed with the stated amounts of solvent and emulsifier, and the concentrate is diluted with water to the desired concentration.
To test for preventive activity, young plants are sprayed with the preparation of active compound at the stated rate of application. After the spray coating has dried on, the plants are inoculated with an aqueous spore suspension of the causal agent of soybean rust (Phakopsora pachyrhizi) and stay for 24 h without light in an incubation cabinet at approximately 24° C. and a relative atmospheric humidity of 95%.
The plants remain in the incubation cabinet at approximately 24° C. and a relative atmospheric humidity of approximately 80% and a day/night interval of 12 h. The test is evaluated 7 days after the inoculation. 0% means an efficacy which corresponds to that of the untreated control, while an efficacy of 100% means that no disease is observed.

[3] = log P by HPLC on a reversed-phase column (C 18), EEC Directive 79/831 Annex V.A8; type: physicochemical; settings: 0.1% aqueous formic acid and acetonitrile
Experimental: In table 1, the log P values were determined in accordance with EEC Directive 79/831 Annex V.A8 by HPLC (High Performance Liquid Chromatography) on a reversed-phase column (C 18), using the method described below: Temperature: 40° C.; Mobile phases: 0.1% aqueous formic acid and acetonitrile; linear gradient from 10% acetonitrile to 90% acetonitrile. Calibration was carried out using unbranched alkan-2-ones (comprising 3 to 16 carbon atoms) with known log P values (determination of the log P values by the retention times using linear interpolation between two successive alkanones). lambda-max-values were determined using UV-spectra from 200 nm to 400 nm and the peak values of the chromatographic signals.

[4] = test system: Puccinia recondita; experiment: In vivo preventive test on Puccinia recondita (brown rust on wheat); settings: for Efficacy: Table A1, dose 100 ppm, examples from WO-2012/052490 formulated in DMF with 2% of alkylarylpolyglycolether; for protection: dose of 100 ppm of active ingredient, comparison with WO-2012/052490
Experimental: Example A: In Vivo Preventive Test on Puccinia recondita (Brown Rust on Wheat) […]
Emulsifier: 1 μL of Tween® 80 per mg of active ingredient
as §1
The young plants of wheat are treated by spraying the active ingredient prepared as described above. Control plants are treated only with an aqueous solution of Acetone/Dimethyl sulfoxide/Tween® 80. After 24 hours, the plants are contaminated by spraying the leaves with an aqueous suspension of Puccinia recondita spores. The contaminated wheat plants are incubated for 24 hours at 20° C. and at 100% relative humidity and then for 10 days at 20° C. and at 70-80% relative humidity.
as §2

[5] = HPLC, reversed-phase column (C 18), 40° C., linear gradient 10% to 90% acetonitrile
[6] = HPLC reversed-phase C 18, 40° C., gradient 10% to 90% acetonitrile

Compound: Cn1cc(C(=O)N(Cc2cc(Cl)ccc2C2(C)CC2)C2CC2)c(C(F)F)n1 [I.029, N-[5-chloro-2-(1-methylcyclopropyl)benzyl]-N-cyclopropyl-3-(difluoromethyl)-1-methyl-1H-pyrazole-4-carboxamide]
- Efficacy [1]: 98%

Compound: Cc1ccc(C2(C)CC2)c(CN(C(=O)c2c(C)nn(C)c2F)C2CC2)c1 [I.040]
- Efficacy ([2]; Table C1, dose 10 ppm): 99%

Compound: CCCC1(c2ccc(C)cc2CN(C(=O)c2c(C)nn(C)c2F)C2CC2)CC1 [I.113]
- logP [3, 5]: 4.61
- Efficacy ([2]; Table C1, dose 10 ppm): 85%

Compound: Cn1nc(C(F)F)c(C(=O)N(Cc2cc(F)ccc2C2CC2)C2CC2)c1F [123 from WO-2010/130767, N-cyclopropyl-N-(2-cyclopropyl-5-fluorobenzyl)-3-(difluoromethyl)-5-fluoro-1-methyl-1H-pyrazole-4-carboxamide, reference compound]
- Efficacy ([2]; Table C1, dose 10 ppm): 0/23

Compound: Cn1nc(C(F)F)c(C(=O)NCc2ccccc2C2CC2)c1F [65 from WO-2012/052490, N-(2-cyclopropylbenzyl)-3-(difluoromethyl)-5-fluoro-1-methyl-1H-pyrazole-4-carboxamide]
- Efficacy [4]: 0%
- protection [4]: no protection

Compound: CCC1(c2ccc(Cl)cc2CN(C(=O)c2c(C)nn(C)c2F)C2CC2)CC1 [I.087]
- Efficacy ([2]; Table C2, dose 10 ppm): 79%
- protection [2]: at least 70%

Compound: Cc1nn(C)c(F)c1C(=O)N(Cc1ccccc1C1CCCCC1)C1CC1 [399 from WO-2007/087906, N-(2-cyclohexylbenzyl)-N-cyclopropyl-5-fluoro-1,3-dimethyl-1H-pyrazole-4-carboxamide, reference compound]
- Efficacy [1]: 0%
- protection ([1]; dose of ppm of active ingredient (number not given), comparison with WO-2007/087906, text): no protection

Compound: Cn1nc(C(F)F)c(C(=O)NCc2ccccc2C2CC2)c1Cl [66 from WO-2012/052490, 5-chloro-N-(2-cyclo-propylbenzyl)-3-(difluoromethyl)-1-methyl-1H-pyrazole-4-carboxamide]
- Efficacy [4]: 0%
- protection [4]: no protection

Compound: Cn1nc(C(F)F)c(C(=O)N(Cc2ccccc2C2CC2)C2CC2)c1F [47 from WO-2010/130767, N-cyclopropyl-N-(2-cyclopropylbenzyl)-3-(difluoromethyl)-5-fluoro-1-methyl-1H-pyrazole-4-carboxamide, reference compound]
- Efficacy ([2]; Table C1, dose 10 ppm): 0%

Compound: Cc1ccc(C2(C)CC2)c(CN(C(=O)c2cn(C)nc2C(F)F)C2CC2)c1 [I.033]
- logP [3, 5]: 3.74
- Efficacy [1]: 100%

Compound: CCC1(c2ccccc2CN(C(=O)c2cn(C)nc2C(F)F)C2CC2)CC1 [I.067]
- Efficacy [4]: 98%
- protection [4]: at least 98%

Compound: Cn1nc(C(F)F)c(C(=O)N(Cc2cc(Cl)ccc2C2CC2)C2CC2)c1F [41 from WO-2010/130767, N-(5-chloro-2-cyclopropylbenzyl)-N-cyclopropyl-3-(difluoromethyl)-5-fluoro-1-methyl-1H-pyrazole-4-carboxamide, reference compound]
- protection [2]: no protection

Compound: 1-(2-formyl-4-methylphenyl)cyclopropanecarbonitrile [IV.16]
- logP ([3]; Table 4, compounds of formula (IV), HPLC C 18, 40° C.): 2.08

More lines, now with the values ahead:

- logP [3, 5]: 5.34
Compound: CCC1(c2cc(Cl)ccc2CN(C(=O)c2cc(C)oc2C)C2CC2)CC1 [Example 1.071]

- logP [3, 6]: 4.44
Compound: Cc1cc(C(=O)N(Cc2cc(F)ccc2C2(C(F)(F)F)CC2)C2CC2)c(C)o1 [Example 1.151]

- logP [3, 5]: 3.71
Compound: Cc1ccc(CN(C(=O)c2c(C)nn(C)c2F)C2CC2)c(C2(C)CC2)c1 [Example 1.016]

- logP [3, 6]: 4.28
Compound: Cn1cc(C(=O)N(Cc2cc(Cl)c(Cl)cc2C2(C)CC2)C2CC2)c(C(F)F)n1 [Example 1.163]

- logP [3, 5]: 4.54
Compound: C#CC1(c2ccc(C)cc2CN(C(=S)c2c(C)nn(C)c2F)C2CC2)CC1 [Example 1.066]

- logP [3, 5]: 3.41
Compound: Cn1cc(C(=O)N(Cc2ccccc2C2(C(F)(F)F)CC2)C2CC2)c(C(F)F)n1 [Example 1.145]

- logP [3, 5]: 3.44
Compound: Cc1nn(C)cc1C(=O)N(Cc1cc(Br)ccc1C1(C)CC1)C1CC1 [Example 1.026]

- logP [3, 5]: 5.03
Compound: CCC1(c2ccc(Cl)cc2CN(C(=O)c2c(OC(F)F)nn(C)c2Cl)C2CC2)CC1 [Example 1.090]

- logP [3, 5]: 4.54
Compound: Cn1nc(C(=O)N(Cc2ccc(Cl)cc2C2(C)CC2)C2CC2)c(C(F)F)n1 [Example 1.009]

- logP [3, 5]: 5.25
Compound: CCC1(c2cc(C)c(F)cc2CN(C(=O)c2cc(C)oc2C(F)F)C2CC2)CC1 [Example 1.080]

- logP [3, 5]: 5.08
Compound: Cc1ccc(C2(C(C)C)CC2)c(CN(C(=O)c2nn(C)nc2C(F)F)C2CC2)c1 [Example 1.121]

- logP [3, 5]: 4.49
Compound: Cc1ccc(C2(C(C)C)CC2)c(CN(C(=O)c2cn(C)nc2C(F)F)C2CC2)c1 [Example 1.123]
